From patent EP4631940A1, “COMPOUND TARGETING PAN-KRAS PROTEIN DEGRADATION AGENT AND USE THEREOF” (Betta Pharmaceuticals Co., Ltd., priority 2022, dated 2024)

Legend:
KRAS G12D [1] = target: T1, KRAS G12D (Homo sapiens, UniProt P01116, G12D)
AGS = test: Cell proliferation experiment (CellTiter-Glo); assay type: cell-based; conditions: Homo sapiens, AGS, 96 h, read-out: IC50(nM) AGS
KRAS G12D [2] = target: T1, KRAS G12D; test: cell-based; conditions: AGS
PK59 = test: Cell proliferation experiment (CellTiter-Glo); assay type: cell-based; conditions: PK-59; PK59, KRAS mutation type G12D; 96 h incubation
in vitro [3] = conditions: dog, microsomes
in vitro [4] = conditions: human, microsomes
H358 = test: Cell proliferation experiment (CellTiter-Glo); assay type: cell-based; conditions: Homo sapiens, NCI-H358; H358, KRAS mutation type G12C; 96 h incubation
in vitro [5] = conditions: mouse, microsomes
SW620 = test: Cell proliferation experiment (CellTiter-Glo); assay type: cell-based; conditions: Homo sapiens, SW-620, 96 h, read-out: IC50(nM) SW620
in vitro [6] = conditions: rat, microsomes
[7] = Phase II metabolic stability in liver microsomes (UDPGA); assay type: in vitro ADME; conditions: 0.5 mg/mL liver microsomes, Alamethicin
Experimental: (§1) Example 6 Study on Phase II Metabolic Stability of Compounds in Human, Rat, Mouse, and Dog Liver Microsomes
(§2) Experimental Method: A diluted solution containing 0.5 mg/mL liver microsomes with K-buffer and MgCl2 was prepared: Table 8
(§3) 358 µL of the diluted liver microsome solution prepared in Table 8 above was added to the pre-set wells of the incubation plate, labeled as the incubation plate. 2 µL of compound working solution (400 µM) (final concentration of DMSO ≤ 0.5%) was added. The incubation plate was placed in a 37°C constant temperature shaker and pre-incubated for 5-10 min. Then, 40 µL of UDPGA (20 mM) was added to the incubation plate to initiate the reaction, and timing started. At each predetermined time point (0, 5, 15, 60 min), 50 µL of samples were taken from the incubation plate and added to the precipitation plate containing 200 µL of internal standard. Samples were mixed thoroughly, centrifuged at 4°C and 5000 rpm for 10 minutes. The supernatant after centrifugation was added to pre-added ultrapure water at an appropriate ratio, mixed thoroughly on a shaker at room temperature, and subjected to LC-MS/MS analysis.
(§4) Data processing: The peak areas of the analyte and the internal standard in samples were measured at different time points. The peak area ratio of the analyte to the internal standard at non-zero time points compared to the peak area ratio of the analyte to the internal standard in the 0 min sample was used to calculate the remaining percentage of the parent drug.

[8] = as above; assay type: in vitro ADME, Human; conditions: for 60 minutes remaining percentage % Human: 0.5 mg/mL liver microsomes, Alamethicin; for metabolism by UGT in human liver microsomes: 60 min
Experimental: as §1, §2, §3, §4

[9] = PK study in ICR mice (whole blood); assay type: in vivo; conditions: Female ICR mice, IV 1 mg/kg; for AUC(0-t) / half-life / C0: mouse; for C0: read-out: C0
Experimental: Example 8 PK Study of Compound in ICR Mice (whole blood)
The compound was mixed with the vehicle (10% DMSO / 5% Solutol HS 15 / 85% saline), vortexed, and sonicated to prepare a clear solution at 0.2 mg/mL. Female ICR mice aged 6 to 7 weeks (non-fasted) were intravenously administered the compound. Whole blood was collected at specified time points. Drug concentration was analyzed by LC-MS/MS, and pharmacokinetic parameters were calculated using Phoenix WinNonlin software (Pharsight Corporation, USA). Table 11 Mouse PK Data for Intravenous Compound Monotherapy

T1 sequence (P01116 1-188 isoform P01116-2 G12D): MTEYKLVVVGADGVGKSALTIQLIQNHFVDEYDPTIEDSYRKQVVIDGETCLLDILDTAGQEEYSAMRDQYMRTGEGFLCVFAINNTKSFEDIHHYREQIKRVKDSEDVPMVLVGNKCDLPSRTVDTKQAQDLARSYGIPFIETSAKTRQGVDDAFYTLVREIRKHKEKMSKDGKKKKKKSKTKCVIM

Row | Structure (SMILES) | DC50 (KRAS G12D [1]) | IC50 (AGS) | Dmax (KRAS G12D [2]) | IC50 (PK59) | microsomal CLint (in vitro [3]) | microsomal CLint (in vitro [4]) | IC50 (H358) | microsomal CLint (in vitro [5]) | IC50 (SW620) | microsomal CLint (in vitro [6]) | 60 minutes remaining percentage % Dog [7] | 60 minutes remaining percentage % Mouse [7] | 60 minutes remaining percentage % Rat [7] | 60 minutes remaining percentage % Human [8] | metabolism by UGT in human liver microsomes [8] | Cl_obs [9] | Vss_obs [9] | AUC(0-t) [9] | half-life [9] | C0 [9]
1 | CCc1c(F)ccc2cc(O)cc(-c3ncc4c(N5CCC[C@@](C)(O)C5)nc(OCC5(CN6CCN(C78CC(c9cn([C@H](C(=O)N%10C[C@H](O)C[C@H]%10C(=O)N[C@@H](C)c%10ccc(-c%11scnc%11C)cc%10)C(C)C)nn9)(C7)C8)CC6)CC5)nc4c3F)c12 [Compound 149, (2S,4R)-1-((S)-2-(4-(3-(4-((1-(((7-(8-ethyl-7-fluoro-3-hydroxynaphthalen-1-yl)-8-fluoro-4-((R)-3-hydroxy-3-methylpiperidin-1-yl)pyrido[4,3-d]pyrimidin-2-yl)oxy)methyl)cyclopropyl)methyl)piperazin-1-yl)bicyclic[1.1.1]pent-1-yl)-1H-1,2,3-triazol-1-yl)-3-methylbutanoyl)-4-hydroxy-N-( (S)-1-(4-(4-methylthiazol-5-yl)phenyl)ethyl)pyrrolidine-2-carboxamide] | 7.6 nM | 15 nM | 95% | 57 nM |  |  |  |  |  |  |  |  |  |  |  |  |  |  |  | 
2 | CCc1c(F)ccc2cc(O)cc(-c3ncc4c(N5CCC[C@@](C)(O)C5)nc(OCC5(CN6CCC(OCc7ccc(-c8cn([C@H](C(=O)N9C[C@H](O)C[C@H]9C(=O)N[C@@H](C)c9ccc(-c%10scnc%10C)cc9)C(C)C)nn8)cc7)CC6)CC5)nc4c3F)c12 [Compound 93] | 11 nM | 6.8 nM | 95% |  | 28.5 µL/min/mg | 23.5 µL/min/mg | 20 nM | 8.3 µL/min/mg | 86 nM | 10.9 µL/min/mg |  |  |  |  |  |  |  |  |  | 
3 | CCc1c(F)ccc2cc(O)cc(-c3ncc4c(N5CCC[C@@](C)(O)C5)nc(OCC5(CN6CCC(COc7ccc(-c8cn([C@H](C(=O)N9C[C@H](O)C[C@H]9C(=O)N[C@@H](C)c9ccc(-c%10scnc%10C)cc9)C(C)C)nn8)cc7)CC6)CC5)nc4c3F)c12 [Compound 69] | 25 nM | 14 nM | 95% |  | 16.4 µL/min/mg | 9.8 µL/min/mg | 42 nM | 7.9 µL/min/mg | 34 nM | 4.6 µL/min/mg | 90.6% | 92% | 99% | 98.4% | not metabolized or are minimally metabolized |  |  |  |  | 
4 | CCc1c(F)ccc2cc(O)cc(-c3ncc4c(N5CCC[C@@](C)(O)C5)nc(OCC5(CN6CCC(Oc7cc(-c8cn([C@H](C(=O)N9C[C@H](O)C[C@H]9C(=O)N[C@@H](C)c9ccc(-c%10scnc%10C)cc9)C(C)C)nn8)ccn7)CC6)CC5)nc4c3F)c12 [Compound 136] | 14 nM | 10 nM | 95% |  | 20.8 µL/min/mg | 19.6 µL/min/mg | 6.6 nM | 22.1 µL/min/mg | 53 nM | 8 µL/min/mg |  |  |  |  |  |  |  |  |  | 
5 | CCc1c(F)ccc2cc(O)cc(-c3ncc4c(N5CCC[C@@](C)(O)C5)nc(OCC5(CN6CCC(c7ccc(-c8cn([C@H](C(=O)N9C[C@H](O)C[C@H]9C(=O)N[C@@H](C)c9ccc(-c%10scnc%10C)cc9)C(C)C)nn8)cc7)CC6)CC5)nc4c3F)c12 [Compound 133] | 17 nM | 13 nM | 95% |  | 9.3 µL/min/mg | 7.4 µL/min/mg | 48 nM | 8 µL/min/mg | 74 nM | 7.2 µL/min/mg |  |  |  |  |  | 14.2 mL/min/kg | 2.49 L/kg | 1200 ng·h/mL | 5.77 h | 2840 ng/mL
6 | CCc1c(F)ccc2cc(O)cc(-c3ncc4c(N5CCC[C@@](C)(O)C5)nc(OCC5(CN6CCC(Oc7ccc(-c8cn([C@H](C(=O)N9C[C@H](O)C[C@H]9C(=O)N[C@@H](C)c9ccc(-c%10scnc%10C)cc9)C(C)C)nn8)nc7)CC6)CC5)nc4c3F)c12 [Compound 117] | 7.5 nM | 13 nM | 95% | 18.5 nM | 6.6 µL/min/mg | 8.8 µL/min/mg |  | 10.1 µL/min/mg | 47 nM | 11.3 µL/min/mg |  |  |  |  |  |  |  |  |  | 
7 | CCc1c(F)ccc2cc(O)cc(-c3ncc4c(N5CCC[C@@](C)(O)C5)nc(OCC5(CN6CCC7(CC6)CN(c6ccc(-c8cn([C@H](C(=O)N9C[C@H](O)C[C@H]9C(=O)N[C@@H](C)c9ccc(-c%10scnc%10C)cc9)C(C)C)nn8)cc6)C7)CC5)nc4c3F)c12 [Compound 75] | 24 nM | 11 nM | 95% |  | 22.1 µL/min/mg | 1 µL/min/mg | 40 nM | 8.6 µL/min/mg | 122 nM | 20.7 µL/min/mg |  |  |  |  |  |  |  |  |  | 
8 | CCc1c(F)ccc2cc(O)cc(-c3ncc4c(N5CCC[C@@](C)(O)C5)nc(OCC5(CN6CCC7(CC6)CC(c6cn([C@H](C(=O)N8C[C@H](O)C[C@H]8C(=O)N[C@@H](C)c8ccc(-c9scnc9C)cc8)C(C)C)nn6)C7)CC5)nc4c3F)c12 [Compound 71] | 20 nM | 18 nM | 95% |  | 6.5 µL/min/mg | 5.9 µL/min/mg | 39 nM | 9.8 µL/min/mg | 85 nM | 1.1 µL/min/mg | 108% | 93% | 75.4% | 94.6% | not metabolized or are minimally metabolized | 16.3 mL/min/kg | 1.45 L/kg | 1030 ng·h/mL | 6.08 h | 5560 ng/mL
9 | CCc1c(F)ccc2cc(O)cc(-c3ncc4c(N5CCC[C@@](C)(O)C5)nc(OC[C@]56CCCN5[C@@H](COC(=O)N5CCC7(CC5)CC(C(=O)N[C@H](C(=O)N5C[C@H](O)C[C@H]5C(=O)N[C@@H](C)c5ccc(-c8scnc8C)cc5)C(C)(C)C)C7)CC6)nc4c3F)c12 [Compound 88] |  | 33 nM |  |  | 13.3 µL/min/mg | 13.4 µL/min/mg | 90 nM | 24.5 µL/min/mg | 199 nM | 10.1 µL/min/mg |  |  |  |  |  | 4.03 mL/min/kg | 0.780 L/kg | 4110 ng·h/mL | 5.61 h | 5000 ng/mL
10 | CCc1c(F)ccc2cc(O)cc(-c3ncc4c(N5CCC[C@@](C)(O)C5)nc(OCC5(CN6CCC(Oc7ccc(-c8cn([C@H](C(=O)N9C[C@H](O)C[C@H]9C(=O)N[C@@H](CO)c9ccc(-c%10ccnn%10CC)cc9)C(C)C)nn8)cn7)CC6)CC5)nc4c3F)c12 [Compound 160] | 2 nM | 14 nM | 95% | 19.5 nM |  |  | 17 nM |  | 88 nM |  |  |  |  |  |  |  |  |  |  | 
11 | C=C1CN2[C@H](COCc3ccc(-c4cn([C@H](C(=O)N5C[C@H](O)C[C@H]5C(=O)N[C@@H](C)c5ccc(-c6scnc6C)cc5)C(C)C)nn4)cc3)CC[C@@]2(COc2nc(N3CCC[C@@](C)(O)C3)c3cnc(-c4cc(O)cc5ccc(F)c(CC)c45)c(F)c3n2)C1 [Compound 122] | 22 nM | 28 nM | 95% |  | 53 µL/min/mg | 46.4 µL/min/mg |  | 24.8 µL/min/mg | 87 nM | 8.5 µL/min/mg | 99.4% | 105% | 96.5% | 76.9% |  |  |  |  |  | 
12 | C=C1CN2[C@@H](COC(=O)N3CCC4(CC3)CC(c3cn([C@H](C(=O)N5C[C@H](O)C[C@H]5C(=O)N[C@@H](C)c5ccc(-c6scnc6C)cc5)C(C)C)nn3)C4)CC[C@@]2(COc2nc(N3CCC[C@@](C)(O)C3)c3cnc(-c4cc(O)cc5ccc(F)c(CC)c45)c(F)c3n2)C1 [Compound 143] | 12 nM | 16 nM | 95% |  |  |  | 24 nM |  | 58 nM |  |  |  |  |  |  |  |  |  |  | 
